Laboratory results: patent publication US8895580B2, “Quinolinone-pyrazolone M1 receptor positive allosteric modulators” (Merck Sharp & Dohme Corp., priority 2009, dated 2014)

Molecular target: T1, acetylcholine muscarinic M1 receptor (CHOnfat/hM1 cells) (Homo sapiens, UniProt P11229)
T1 construct: expressed in transfected cells; host or cells: CHOnfat cells (CHOnfat/hM1; Geneticin-selected)
T1 sequence (P11229 1-460): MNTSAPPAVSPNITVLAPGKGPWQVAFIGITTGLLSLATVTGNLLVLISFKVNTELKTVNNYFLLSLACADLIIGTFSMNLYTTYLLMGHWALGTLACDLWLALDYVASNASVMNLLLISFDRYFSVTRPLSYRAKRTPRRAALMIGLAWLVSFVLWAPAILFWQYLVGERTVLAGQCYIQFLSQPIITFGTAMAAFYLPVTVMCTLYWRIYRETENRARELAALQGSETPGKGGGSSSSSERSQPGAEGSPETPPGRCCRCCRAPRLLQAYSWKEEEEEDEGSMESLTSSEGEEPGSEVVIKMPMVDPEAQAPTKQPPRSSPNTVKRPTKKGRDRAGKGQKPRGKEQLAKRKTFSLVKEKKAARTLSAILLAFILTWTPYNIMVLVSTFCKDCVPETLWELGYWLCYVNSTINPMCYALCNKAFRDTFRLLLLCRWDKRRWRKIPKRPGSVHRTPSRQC
Test: muscarinic M1 FLIPR intracellular calcium assay (positive allosteric modulation)
Type: cell-based
Settings: FLIPR Ca2+, 4 min preincubation, then EC20 acetylcholine (3 nM final), read-out: IP Value (inflection point)
Procedure: The assay studies the effect of one or several concentrations of test compounds on basal or acetylcholine-stimulated Ca^2+ levels using FLIPR.
Compounds are prepared and subjected to a preincubation period of 4 min. Thereafter, a single EC20 concentration of acetylcholine is added to each well (3 nM final). The intracellular Ca^2+ level of each sample is measured and compared to an acetylcholine control to determine any modulatory activity.
Cells: CHOnfat/hM1, hM2, hM3 or hM4 cells are plated 24 hr before the assay at a density of 18,000 cells/well (100 μL) in a 384 well plate. CHOnfat/hM1 and CHOnfat/hM3 Growth Medium: 90% DMEM (Hi Glucose); 10% HI FBS; 2 mM L-glutamine; 0.1 mM NEAA; Pen-Strep; and 1 mg/ml Geneticin, are added. For M2Gqi5CHOnfat and M4Gqi5CHOnfat cells, an additional 600 ug/ml hygromycin is added.
Equipment: 384 well plate, 1204 addition plate; 96-well Whatman 2 ml Uniplate Incubator, 37° C., 5% CO2; Skatron EMBLA-384 Plate Washer; Multimek Pipetting System; Genesis Freedom 200 System; Mosquito System; Temo Nanoliter Pipetting System; and FLIPR^384 Fluorometric Imaging Plate Reader System are used.
Buffers. Assay Buffer: Hanks Balanced Salt Solution, with 20 mM Hepes, 2.5 mM Probenecid (Sigma P-8761) first dissolved in 1 N NaOH, 1% Bovine Serum Albumin (Sigma A-9647). Dye Loading Buffer: Assay Buffer plus 1% Fetal Bovine Serum and Fluo-4AM/Pluronic Acid Mixture. 2 mM Fluo-4AM ester stock in DMSO (Molecular Probes F-14202) Concentration of 2 μM in buffer for a final concentration of 1 μM in Assay. 20% Pluronic Acid Solution stock, with concentration of 0.04% in Buffer, 0.02% in Assay.
65 μL of 2 mM Fluo-4AM are mixed with 130 μL of 20% Pluronic Acid. The resulting solution and 650 μL FBS is added to the assay buffer for a total volume of 65 mL. Positive Controls: 4-Br-A23187: 10 mM in DMSO; final concentration 10 μM. Acetylcholine: 10 mM in water, working stock at both 20 μM and 30 μM in assay buffer, final concentration of 10 μM. This is used to check the maximum stimulation of the CHOK1/hM1 cells, 20 μM (2×) acetylcholine is added in the preincubation part of the assay, and the 30 μM (3×) stock is added in the second part. (EC20)Acetylcholine: 10 mM in water, working stock of 9 nM (3×), and final concentration in assay is 3 nM. This is used after the preincubation with test compounds. Addition of the EC20 Acetylcholine to each well with a test compound will ascertain any modulator activity. 24 wells contain 3 nM Acetylcholine alone as a control.
Determining Activity of Putative Compounds:
Screening Plate Compounds are titrated in 96-well plates (columns 2-11), 100% DMSO, started at a concentration of 15 mM (150× stock concentration), and 3-fold serial dilutions using Genesis Freedom200 System. Four 96-well plates are combined into a 384-well plate using Mosquito Nanoliter Pipetting System by transferring 1 μl of serial diluted compounds to each well, and 1 mM acetylcholine (100× stock concentration) were added as a control. Using Temo, 49 μl assay buffer is added to each well of the 384-well plate right before assay.
In a 96-well Whatman 2 ml Uniplate, 9 nM Acetylcholine (3×) is pipetted into wells corresponding to the screening compounds, and into control wells. The 30 μM acetylcholine control (3×) is added into control wells, and the 3× agonist plate is transferred into a 384 well plate.
Cells are washed three times with 100 μl, of buffer, leaving 30 μl of buffer in each well. Using Multimek, 30 μL of Dye Loading Buffer is added into each well and incubated at 37° C., 5% CO2 for up to one hr.
After 60 min, the cells are washed three times with 100 μl of buffer, leaving 30 μl, of buffer in each well. The cell plate, screening plate, and agonist addition plates are placed on the platform in the FLIPR and the door closed. A signal test to check background fluorescence and basal fluorescence signal is performed. Laser intensity is adjusted if necessary. […]

Structure (SMILES) | EC50 [nM]
CCN(CC)C(=O)Cn1nc2c3ccccc3n(Cc3ccc(-n4cccn4)cc3)cc-2c1=O [Example 690, N,N-Diethyl-2-(3-oxo-5-{[4-(1H-pyrazol-1-yl)phenyl]methyl}-3,5-dihydro-2H-pyrazol[4,3-c]quinolin-2-yl)acetamide] | 1250
O=c1c2cn(Cc3ccc(-n4cccn4)cc3)c3ccccc3c-2nn1C1CCOCC1 [Example 428] | 359
O=c1c2cn(Cc3ccc(-n4cccn4)cc3)c3ccccc3c-2nn1[C@H]1CCCC[C@@H]1O (racemic) [Example 508, (±)-2-(trans-2-Hydroxycyclohexyl)-5-{[4-(1H-pyrazol-1-yl)phenyl]methyl}-2,5-dihydro-3H-pyrazolo[4,3-c]quinolin-3-one] | 33
O=c1c2cn(Cc3ccc4[nH]ccc4c3)c3ccccc3c-2nn1-c1ccccc1F [Example 109, 2-(2-Fluorophenyl)-5-(1H-indol-5-ylmethyl)-2,5-dihydro-3H-pyrazolo[4,3-c]quinolin-3-one] | 90
Cc1ccnc(N[C@H]2CCCC[C@@H]2n2cc3c(=O)n(-c4nccc(C)c4F)nc-3c3c(NCc4ccc(-n5cccn5)cc4)c(F)ccc32)c1F (racemic) [Example 733, (±)-8-Fluoro-2-(3-fluoro-4-methylpyridin-2-yl)-5-trans-2-[(3-fluoro-4-methylpyridin-2-yl)amino]cyclohexy}-9-({[4-(1H-pyrazol-1-yl)phenyl]methyl}amino)-2,5-dihydro-3H-pyrazolo[4,3-c]quinolin-3-one] | 653
CC(=O)N1CCC(n2nc3c4ccccc4n(Cc4ccc(-n5cccn5)cc4)cc-3c2=O)CC1 [Example 675, 2-(1-Acetylpiperidin-4-yl)-5-{[4-(1H-pyrazol-1-yl)phenyl]methyl}-2,5-dihydro-3H-pyrazolo[4,3-c]quinolin-3-one5] | 664
CCNCc1ccccc1-n1nc2c3c(F)ccc(F)c3n(Cc3ccc(-n4cccn4)cc3)cc-2c1=O [Example 56] | 123
O=C1CCCCC1n1nc2c3ccccc3n(Cc3ccc(-n4cccn4)cc3)cc-2c1=O (racemic) [Example 720, (±)-2-(2-oxocyclohexyl)-5-{[4-(1H-pyrazol-1-yl)phenyl]methyl}-2,5-dihydro-3H-pyrazolo[4,3-c]quinolin-3-one] | 135
COc1ccc(Cn2cc3c(=O)n(-c4ccccc4F)nc-3c3ccccc32)cc1 [Example 1, 2-(2-Fluorophenyl)-5-{[4-(methoxy)phenyl]methyl}-2,5-dihydro-3H-pyrazolo[4,3-c]quinolin-3-one] | 415
O=c1c2cn(Cc3c(F)cccc3F)c3ccccc3c-2nn1-c1ccccc1F [Example 294] | 824
O=c1c2cn(Cc3ccc(-c4ccc5[nH]ccc5c4)cc3F)c3ccccc3c-2nn1-c1ccccc1F [Example 187, 5{[2-Fluoro-4-(1H-indol-5-yl)phenyl]methyl}-2-(2-fluorophenyl)-2,5-dihydro-3H-pyrazolo[4,3-c]quinolin-3-one] | 1640
CNC(=O)c1ccccc1-n1nc2c3ccccc3n(Cc3ccc(-n4cccn4)cc3)cc-2c1=O [Example 612, N-Methyl-2-(3-oxo-5-{[4-(1H-pyrazol-1-yl)phenyl]methyl}-3,5-dihydro-2H-pyrazolo[4,3-c]quinolin-2-yl)benzamide] | 4870
O=c1c2cn(Cc3ccc(-n4cccn4)cc3)c3ccccc3c-2nn1-c1ccccc1F [Example 107, 2-Fluorophenyl-5-{[4-(1H-pyrazol-1-yl)phenyl]methyl}-2,5-dihydro-3H-pyrazolo[4,3-c]quinolin-3-one] | 59
O=c1c2cn(Cc3ccc(-n4cccn4)cc3)c3ccccc3c-2nn1-c1ccccc1CN1CCCC1 [Example 648, 5-{[4-(1H-Pyrazol-1-yl)phenyl]methyl}-2-[2-(pyrrolodin-1-ylmethyl)phenyl]-2,5-dihydro-3H-pyrazolo[4,3-c]quinolin-3-one] | 179
O=c1c2cn(Cc3nccc4ccccc34)c3ccccc3c-2nn1-c1ccccc1F [Example 128] | 1290
O=C1CCc2cccc(-n3nc4c5ccccc5n(Cc5ccc(-n6cccn6)cc5)cc-4c3=O)c21 [Example 587] | 4.8
Cc1ccc(-c2ccc(Cn3cc4c(=O)n(-c5ccccc5F)nc-4c4ccccc43)nc2)cn1 [Example 258] | 246
O=c1c2cn(Cc3ccc(-n4cncn4)cc3F)c3c(F)ccc(F)c3c-2nn1-c1ccccc1F [Example 84, 6,9-Difluoro-2-(2-fluorophenyl)-5-{[2-fluoro-4-(1H-1,2,4-triazol-1-yl)phenyl]methyl}-2,5-dihydro-3H-pyrazolo[4,3-c]quinolin-3-one] | 348
N#Cc1cccc(F)c1-n1nc2c3ccccc3n(Cc3ccc(-n4cccn4)cc3)cc-2c1=O [Example 667, 3-Fluoro-2-(3-oxo-5-{[4-(1H-pyrazol-1-yl)phenyl]methyl}-3,5-dihydro-2H-pyrazolo[4,3-c]quinolin-2-yl)benzonitrile] | 22
CC(C)Cn1cc(-c2ccc(Cn3cc4c(=O)n(-c5ccccc5F)nc-4c4ccccc43)cn2)cn1 [Example 242] | 159
Cn1cnc(-n2nc3c4c(F)ccc(F)c4n(Cc4ccc(-n5cccn5)cc4)cc-3c2=O)c1 [Example 24, 6,9-Difluoro-2-(1-methyl-1H-imidazol-4-yl)-5-{[4-(1H-pyrazol-1-yl)phenyl]methyl}-2,5-dihydro-3H-pyrazolo[4,3-c]quinolin-3-one] | 103
O=c1c2cn(Cc3ccc(-n4cccn4)cc3)c3c(F)ccc(F)c3c-2nn1-c1ccccc1CO [Example 55, 6,9-Difluoro-2-[2-(hydroxymethyl)phenyl]-5-{[4-(1H-pyrazol-1-yl)phenyl]methyl}-2,5-dihydro-3H-pyrazolo[4,3-c]quinolin-3-one] | 204
O=c1c2cn(Cc3ccc(-c4ncco4)cc3)c3ccccc3c-2nn1-c1ccccc1F [Example 381] | 900
O=c1c2cn(Cc3ccc(-c4ccccc4)cc3)c3ccccc3c-2nn1-c1ccccc1F [Example 8, 2-(2-Fluorophenyl)-5-(biphenyl-4-ylmethyl)-2,5-dihydro-3H-pyrazolo[4,3-c]quinolin-3-one] | 1990
O=c1c2cn(Cc3ccc(-n4cccn4)cc3)c3c(F)ccc(F)c3c-2nn1-c1ncccc1C(F)(F)F [Example 77, 6,9-Difluoro-5-{[4-(1H-pyrazol-1-yl)phenyl]methyl}-2-[3-(trifluoromethyl)pyridin-2-yl]-2,5-dihydro-3H-pyrazolo[4,3-c]quinolin-3 one] | 65
